Measurements reported in the supplement of paper PMC10307832.

Key:
Assay in all cases: relative viability (nuclei count vs DMSO), 5 days (fraction); higher = more cells survive
HOP-62 = test system: HOP-62
Summary of the method: (§1)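 Lung cancer cell lines were seeded in 1536-well plates and dosed by pin tool the next day, with either a single drug or a fixed anchor-drug dose combined with five library-drug doses (not always all listed) spaced in √10 steps. Five days later, one step fixed the cells and stained their nuclei (final 0.05% Triton X-100, 1% formaldehyde, 1 ug/ml Hoechst), and nuclei were counted on 4× images. Relative viability is the nuclei count in treated wells divided by the count in vehicle wells, and each value is the median of duplicate plates.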

NCI-H838 = test system: NCI-H838
Summary of the method: as §1

LU99A = test system: LU99A
Summary of the method: as §1

NCI-H1355 = test system: NCI-H1355
Summary of the method: as §1

NCI-H1993 = test system: NCI-H1993
Summary of the method: as §1

NCI-H1651 = test system: NCI-H1651
Summary of the method: as §1

NCI-H2085 = test system: NCI-H2085
Summary of the method: as §1

NCI-H2023 = test system: NCI-H2023
Summary of the method: as §1

NCI-H358 = test system: NCI-H358
Summary of the method: as §1

HCC-44 = test system: HCC-44
Summary of the method: as §1

NCI-H650 = test system: NCI-H650
Summary of the method: as §1

NCI-H2347 = test system: NCI-H2347
Summary of the method: as §1

COR-L23 = test system: COR-L23
Summary of the method: as §1

HARA = test system: HARA
Summary of the method: as §1

HCC-15 = test system: HCC-15
Summary of the method: as §1

NCI-H2126 = test system: NCI-H2126
Summary of the method: as §1

UMC-11 = test system: UMC-11
Summary of the method: as §1

SW 1573 = test system: SW 1573
Summary of the method: as §1

LC-2-ad = test system: LC-2-ad
Summary of the method: as §1

EPLC-272H = test system: EPLC-272H
Summary of the method: as §1

PC-14 = test system: PC-14
Summary of the method: as §1

NCI-H1915 = test system: NCI-H1915
Summary of the method: as §1

ABC-1 = test system: ABC-1
Summary of the method: as §1

`COc1nc(C)cnc1NS(=O)(=O)c1cccnc1-c1ccc(-c2nnco2)cc1` [Zibotentan] + C[C@]1(O)C[C@@H](c2nc(-c3ccc4ccc(-c5ccccc5)nc4c3)c3c(N)nccn32)C1 [Linsitinib] (partner 1 µM) was tested, and the relative viability (HOP-62; first compound 0.08 µM) was 0.805, the relative viability (HOP-62; first compound 0.253 µM) was 1.06 and the relative viability (HOP-62; first compound 0.8 µM) was 0.992. For the same compound, the relative viability (HOP-62; first compound 2.53 µM) was 1.29, the relative viability (NCI-H838; first compound 0.08 µM) was 1.02 and the relative viability (NCI-H838; first compound 0.253 µM) was 0.957. The relative viability (NCI-H838; first compound 0.8 µM) was 1, the relative viability (NCI-H838; first compound 2.53 µM) was 0.959 and the relative viability (LU99A; first compound 0.08 µM) was 0.602. It also gave a relative viability (LU99A; first compound 0.253 µM) of 0.528, a relative viability (LU99A; first compound 0.8 µM) of 0.521 and a relative viability (LU99A; first compound 2.53 µM) of 0.602. The relative viability (NCI-H1355; first compound 0.08 µM) was 0.812, the relative viability (NCI-H1355; first compound 0.253 µM) was 0.818 and the relative viability (NCI-H1355; first compound 0.8 µM) was 0.824. For the same compound, the relative viability (NCI-H1355; first compound 2.53 µM) was 0.909, the relative viability (NCI-H1993; first compound 0.253 µM) was 0.838 and the relative viability (NCI-H1993; first compound 0.8 µM) was 0.75. The relative viability (NCI-H1993; first compound 2.53 µM) was 0.85, the relative viability (NCI-H1651; first compound 0.08 µM) was 1.17 and the relative viability (NCI-H1651; first compound 0.253 µM) was 0.949. It also gave a relative viability (NCI-H1651; first compound 0.8 µM) of 0.92, a relative viability (NCI-H1651; first compound 2.53 µM) of 0.849 and a relative viability (NCI-H2085; first compound 0.08 µM) of 0.852. The relative viability (NCI-H2085; first compound 0.253 µM) was 0.818, the relative viability (NCI-H2085; first compound 0.8 µM) was 0.944 and the relative viability (NCI-H2085; first compound 2.53 µM) was 0.944. It also gave a relative viability (NCI-H2023; first compound 0.08 µM) of 0.57, a relative viability (NCI-H2023; first compound 0.253 µM) of 0.544 and a relative viability (NCI-H2023; first compound 0.8 µM) of 0.743. The relative viability (NCI-H2023; first compound 2.53 µM) was 0.654, the relative viability (NCI-H358; first compound 0.08 µM) was 0.782 and the relative viability (NCI-H358; first compound 0.8 µM) was 0.778. It also gave a relative viability (NCI-H358; first compound 2.53 µM) of 0.805, a relative viability (HCC-44; first compound 0.08 µM) of 0.759 and a relative viability (HCC-44; first compound 0.253 µM) of 0.614. For the same compound, the relative viability (HCC-44; first compound 0.8 µM) was 0.747, the relative viability (HCC-44; first compound 2.53 µM) was 0.703 and the relative viability (NCI-H650; first compound 0.08 µM) was 1. The relative viability (NCI-H650; first compound 0.253 µM) was 0.676, the relative viability (NCI-H650; first compound 0.8 µM) was 1.02 and the relative viability (NCI-H650; first compound 2.53 µM) was 0.881. For the same compound, the relative viability (NCI-H2347; first compound 0.08 µM) was 0.982, the relative viability (NCI-H2347; first compound 0.253 µM) was 0.833 and the relative viability (NCI-H2347; first compound 0.8 µM) was 1.11. It also gave a relative viability (NCI-H2347; first compound 2.53 µM) of 0.969, a relative viability (COR-L23; first compound 0.08 µM) of 1.02 and a relative viability (COR-L23; first compound 0.253 µM) of 0.748. The relative viability (COR-L23; first compound 0.8 µM) was 0.896, the relative viability (COR-L23; first compound 2.53 µM) was 1.14 and the relative viability (HARA; first compound 0.08 µM) was 1.24. It also gave a relative viability (HARA; first compound 0.253 µM) of 0.945, a relative viability (HARA; first compound 0.8 µM) of 0.955 and a relative viability (HARA; first compound 2.53 µM) of 0.902. The relative viability (HCC-15; first compound 0.08 µM) was 0.905, the relative viability (HCC-15; first compound 0.253 µM) was 0.912 and the relative viability (HCC-15; first compound 0.8 µM) was 0.867. It also gave a relative viability (HCC-15; first compound 2.53 µM) of 0.878, a relative viability (NCI-H2126; first compound 0.08 µM) of 0.733 and a relative viability (NCI-H2126; first compound 0.253 µM) of 0.625. For the same compound, the relative viability (NCI-H2126; first compound 0.8 µM) was 0.745, the relative viability (NCI-H2126; first compound 2.53 µM) was 0.716 and the relative viability (UMC-11; first compound 0.08 µM) was 1.11. For the same compound, the relative viability (UMC-11; first compound 0.253 µM) was 0.944, the relative viability (UMC-11; first compound 0.8 µM) was 1.03 and the relative viability (UMC-11; first compound 2.53 µM) was 1.05. The relative viability (SW 1573; first compound 0.08 µM) was 1.04, the relative viability (SW 1573; first compound 0.253 µM) was 0.783 and the relative viability (SW 1573; first compound 0.8 µM) was 0.863. The relative viability (SW 1573; first compound 2.53 µM) was 0.878, the relative viability (LC-2-ad; first compound 0.08 µM) was 0.904 and the relative viability (LC-2-ad; first compound 0.253 µM) was 0.828. It also gave a relative viability (LC-2-ad; first compound 0.8 µM) of 0.87, a relative viability (LC-2-ad; first compound 2.53 µM) of 0.976 and a relative viability (EPLC-272H; first compound 0.08 µM) of 1.06. The relative viability (EPLC-272H; first compound 0.253 µM) was 1.23, the relative viability (EPLC-272H; first compound 0.8 µM) was 1.33 and the relative viability (EPLC-272H; first compound 2.53 µM) was 1.22. For the same compound, the relative viability (PC-14; first compound 0.08 µM) was 1, the relative viability (PC-14; first compound 0.253 µM) was 0.888 and the relative viability (PC-14; first compound 0.8 µM) was 0.937. The relative viability (PC-14; first compound 2.53 µM) was 1.02, the relative viability (NCI-H1915; first compound 0.08 µM) was 0.917 and the relative viability (NCI-H1915; first compound 0.253 µM) was 1.19. For the same compound, the relative viability (NCI-H1915; first compound 0.8 µM) was 1.11, the relative viability (NCI-H1915; first compound 2.53 µM) was 1.08 and the relative viability (ABC-1; first compound 0.08 µM) was 0.775. The relative viability (ABC-1; first compound 0.253 µM) was 0.803, the relative viability (ABC-1; first compound 0.8 µM) was 1.01 and the relative viability (ABC-1; first compound 2.53 µM) was 0.822.
